This note sets out measurements from paper PMC6934184, “Selective DNA-PKcs inhibition extends the therapeutic index of localized radiotherapy and chemotherapy” (The Journal of Clinical Investigation, 2019).

The assay concerns the target T1, CAMK4 (CaMKIV) (Homo sapiens, UniProt Q16566).
T1 construct: purchased Thermo Fisher Scientific (Life Technologies) SelectScreen
The experiment in a line: SelectScreen Z'LYTE. In kind it is biochemical. An outline of the steps:
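NU5455 was profiled across the SelectScreen Broad panel of kinase activity and binding assays. Z'LYTE reactions such as CSF1R ran at apparent Km ATP, while the Adapta CAMK1 assay used ATP listed as 10. Values are given as percent.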

T1 sequence (Q16566 whole entry): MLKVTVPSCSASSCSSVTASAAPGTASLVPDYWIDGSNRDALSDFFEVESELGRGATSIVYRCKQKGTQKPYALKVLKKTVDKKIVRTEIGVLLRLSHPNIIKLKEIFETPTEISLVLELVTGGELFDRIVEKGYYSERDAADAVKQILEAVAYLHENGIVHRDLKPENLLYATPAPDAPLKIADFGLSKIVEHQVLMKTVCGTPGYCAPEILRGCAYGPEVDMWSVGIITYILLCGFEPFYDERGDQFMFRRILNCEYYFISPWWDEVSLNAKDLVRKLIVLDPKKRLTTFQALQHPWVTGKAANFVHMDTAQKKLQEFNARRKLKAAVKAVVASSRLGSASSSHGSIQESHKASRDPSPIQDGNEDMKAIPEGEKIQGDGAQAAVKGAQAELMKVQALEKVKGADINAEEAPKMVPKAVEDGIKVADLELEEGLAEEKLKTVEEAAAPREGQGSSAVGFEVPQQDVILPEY

For orientation: inhibition means the change of the read-out against control, counted positive when it falls. As to `CN(C(=O)CN1CCOCC1)c1ccc2sc3c(-c4cccc5c(=O)cc(N6CC7CCC(C6)O7)oc45)cccc3c2c1` [NU5455], the inhibition at 1 µM was -10.4%.
